Data on six molecules can be found in paper PMC9237828, “Chemically Tuning Resveratrol for the Effective Killing of Gram-Positive Pathogens” (Journal of Natural Products, 2022).

The test system of experiment [1] is E. faecium LMG16003. The experiment in a line: Combined action with antibiotics (MIC reduction, checkerboard FICI). The class given is cell-based. The settings on record: for FICI, antibiotic with 17 / FICI, antibiotic with 15: fractional inhibitory concentration index, EUCAST, * means relevant FICI values; for MIC of antibiotic in combination with RES: RES at 8 μM.

The test system of experiment [2] is S. aureus LMG8224. The description is as above. The conditions noted are these: for MIC of antibiotic in combination with RES: RES at 4 μM; for FICI, antibiotic with 15 / FICI, antibiotic with 17: fractional inhibitory concentration index, EUCAST, * means relevant FICI values. The class given is cell-based, Staphylococcus aureus.
The test system of experiment [3] is panel of aerobic and anaerobic Gram-positive bacteria. Briefly: organism not typed. The class given is cell-based.

As to `NCC[C@H](O)C(=O)N[C@@H]1C[C@H](N)[C@@H](O[C@H]2O[C@H](CN)[C@@H](O)[C@H](O)[C@H]2O)[C@H](O)[C@H]1O[C@H]1O[C@H](CO)[C@@H](O)[C@H](N)[C@H]1O` [Ami, amikacin], the “MIC of antibiotic alone (Ab)” value in experiment [1] is more than 32 µM. In experiment [2] (15 at 2 μM), the “MIC of antibiotic in combination with 15” value turned out to be 2 ± 0 µM. Besides, in experiment [2] (15 at 4 μM), the “MIC of antibiotic in combination with 15” value was 0.5 ± 0 µM. For the same molecule, in experiment [2] (17 at 2 μM), the “MIC of antibiotic in combination with 17” value stood at 3.3 ± 0.5 µM. Also, the “MIC of antibiotic in combination with 17” value in experiment [2] (17 at 4 μM) worked out at 0.8 ± 0.1 µM. In experiment [2], the “MIC of antibiotic in combination with RES” value (shortened to “MIC of antibiotic … with RES”) was determined as 8 ± 0 µM; the “MIC of antibiotic alone (Ab)” value was found to be 8 ± 0 µM; the “FICI, antibiotic with 15” value was 0.31; the “FICI, antibiotic with 17” value amounted to 0.60.

With `NC[C@H]1O[C@H](O[C@H]2[C@H](O)[C@@H](O[C@H]3O[C@H](CO)[C@@H](O)[C@H](N)[C@H]3O)[C@H](N)C[C@@H]2N)[C@H](O)[C@@H](O)[C@@H]1O` [Kan, kanamycin], the “MIC of antibiotic in combination with 17” value in experiment [1] (17 at 4 μM) was 32 ± 0 µM; in experiment [2] (17 at 2 μM), 2 ± 0 µM; in experiment [2] (17 at 4 μM) it was 1 ± 0 µM. Moreover, the “MIC of antibiotic alone (Ab)” value in experiment [1] was more than 32 µM; in experiment [2], 4 ± 0 µM. Moreover, the “FICI, antibiotic with 17” value is on record as 1* in experiment [1] and 0.75 in experiment [2]. Besides, the “MIC of antibiotic in combination with 15” value in experiment [2] (15 at 2 μM) was determined as 2 ± 0 µM; in experiment [2] (15 at 4 μM), 0.6 ± 0.1 µM. For the same molecule, the “MIC of antibiotic … with RES” value in experiment [2] was found to be 4 ± 0 µM. Further, the “FICI, antibiotic with 15” value in experiment [2] was 0.41.

For the molecule `[H]/N=C(/N)N[C@H]1[C@H](O)[C@@H](O)[C@H](O[C@@H]2O[C@@H](C)[C@](O)(C=O)[C@H]2O[C@@H]2O[C@@H](CO)[C@H](O)[C@@H](O)[C@@H]2NC)[C@@H](N/C(N)=N\[H])[C@@H]1O` [Str, streptomycin], the results for the “MIC of antibiotic alone (Ab)” value in experiment [1] and in experiment [2] were 32 ± 0 µM and 16 ± 0 µM, respectively. Also, the “MIC of antibiotic in combination with 17” value was 8 ± 0 µM in experiment [2] (17 at 2 μM) and 4 ± 0 µM in experiment [2] (17 at 4 μM). The “MIC of antibiotic … with RES” value in experiment [2] turned out to be 16 ± 0 µM. Moreover, the “FICI, antibiotic with 17” value in experiment [2] came out at 0.75.

Take `O=S(=O)(O)Oc1ccc(/C=C/c2cc(O)cc(OS(=O)(=O)O)c2)cc1` [compound 7, Resveratrol 3,4′-disulfate]: the “antibacterial activity against the Gram-positive panel” value in experiment [3] is listed as “did not show antibiotic activity”.

bacitracin: the “MIC of antibiotic in combination with 15” value in experiment [1] (15 at 4 μM) was 16 ± 0 µM; in experiment [1] (15 at 8 μM) it was 0.3 ± 0.2 µM; in experiment [2] (15 at 2 μM), 26.6 ± 3.7 µM; in experiment [2] (15 at 4 μM), 4 ± 0 µM. Also, the “MIC of antibiotic in combination with 17” value stood at 32 ± 0 µM in experiment [1] (17 at 2 μM), 16 ± 0 µM in experiment [1] (17 at 4 μM) and 6.6 ± 0.9 µM in experiment [2] (17 at 4 μM). For the same molecule, the “MIC of antibiotic … with RES” value in experiment [1] and in experiment [2] was more than 32 µM in each case. The “MIC of antibiotic alone (Ab)” value in experiment [1] and in experiment [2] was more than 32 µM each time. The results for the “FICI, antibiotic with 15” value in experiment [1] and in experiment [2] were 0.27* and 0.31*, respectively. Besides, the “FICI, antibiotic with 17” value in experiment [1] is given as 0.75*; in experiment [2], 0.41*.

polymyxin B: the “MIC of antibiotic in combination with 15” value in experiment [1] (15 at 4 μM) was determined as 21.3 ± 3.7 µM; in experiment [1] (15 at 8 μM) it was 1.8 ± 0.2 µM; in experiment [2] (15 at 2 μM), 8 ± 0 µM; in experiment [2] (15 at 4 μM), 1 ± 0 µM. The “MIC of antibiotic … with RES” value in experiment [1] and in experiment [2] was more than 32 µM throughout. The “MIC of antibiotic alone (Ab)” value in experiment [1] and in experiment [2] was more than 32 µM in each case. The “FICI, antibiotic with 15” value in experiment [1] is 0.27*; in experiment [2], 0.25*. Besides, the entries for the “MIC of antibiotic in combination with 17” value in experiment [2] (17 at 2 μM) and in experiment [2] (17 at 4 μM) were 13.3 ± 1.8 µM and 6.6 ± 0.9 µM, respectively. Moreover, in experiment [2], the “FICI, antibiotic with 17” value is on record as 0.45*.
